# Laboratory results from publication PMC6560211, “ApoAI-derived peptide increases glucose tolerance and prevents formation of atherosclerosis in mice” (Diabetologia, 2019).
# No end group written: not given here.
# How the values were obtained:
# [1] = Peptide solubility by HPLC; format: physicochemical; conditions: reconstituted RG54 peptide; assayed using HPLC
# Description: (§1) Peptide (lyophilised powder) produced by Red Glead (Lund, Sweden) was reconstituted in Milli-Q water and then either used directly or mixed in a 1:1 ratio with 6 mol/l guanidine HCl in 2× PBS to give a monodisperse solution, followed by desalting using a column equilibrated with PBS, pH 7.4, using ÄKTAxpress fast protein LC (GE Healthcare, Uppsala, Sweden). Peptide integrity was analysed using circular dichroism spectroscopy. Peptide solubility was assayed at Red Glead using HPLC. Peptide stability in physiologic buffer or blood plasma (human or mouse) over 2 h was assayed at the Science for Life Laboratory (Uppsala, Sweden). For detailed methods, please refer to the electronic supplementary material (ESM) Methods.
# The peptide RG54 was synthesised with natural amino acids and then modified with an acetylation cap on the N-terminus in order to reduce the susceptibility for proteolytic degradation by […] (ESM Fig. 3a). […] Peptide integrity following the denaturation/refolding procedure was confirmed using gel electrophoresis and circular dichroism spectroscopy analyses (ESM Fig. 3d,e) and by peptide stability assays (buffer or plasma) (ESM Fig. 3f).
# [2] = DMPC MLV lipid clearance (lipid binding); conditions: compared with ApoA-I; 30 nmol/l DMPC, 1:100 molar ratio, 25°C, absorbance at 325 nm; n=5
# Description: Turbid MLV solutions at 30 nmol/l DMPC were combined with PBS, RG54 or ApoA-I at a 1:100 molar ratio, and lipid binding at 25°C was measured by absorbance at 325 nm at the indicated times. Readings were fitted to one-way decay of non-linear regression.
# Quantitative and qualitative lipid assays were applied to determine the lipid-binding properties of RG54. Solubilisation of MLVs made from DMPC phospholipids by RG54 peptide, or by recombinant ApoA-I protein as control, was assayed by light scattering (ESM Fig. 4a).
# ESM Figure 4. Lipid clearance and peptide-lipid complex formation activity of RG54 compared with full-length ApoA-I.
# DMPC clearance activity of RG54 was compared with ApoA-I. Turbid solutions of DMPC MLVs (30 nmol/l) were prepared in PBS as described in Methods and combined with PBS, RG54, or ApoA-I at a 1:100 molar ratio then lipid binding at 25°C was measured by absorbance at 325 nm at indicated times. (a) Readings were fitted to one-way decay of non-linear regression. (b) The lipid clearance rate is described as t1/2 values calculated from panel a, means ± SEM, n=5, *** p ≤ 0.001. Further, rHDL particles were prepared by incubating the MLVs with proteins or peptides in the molar ratios noted at 24°C for four days. Particle size distribution was analysed by DLS and frequency curves generated for ApoA-I (c) or RG54 (d). […]
# [3] = Peptide stability in physiologic buffer or blood plasma; format: in vitro ADME; conditions: after denaturation/refolding; phosphate buffer, human plasma (citrate, pooled from four donors) or mouse CD-1 plasma (heparin); over 2 h; LC-MS/MS
# Description: as §1, with “For detailed methods, please refer to the electronic supplementary material (ESM) Methods.” left out
# Peptide concentration was determined at 205 nm using a NanoDrop 2000c spectrophotometer (Thermo Scientific) and integrity was analysed by Tris-Tricine SDS-PAGE followed by coomassie staining or by circular dichroism spectroscopy (CD). […]
# The primary goal of this study was to investigate the anti -diabetic and anti-atherosclerotic efficacy of a novel ApoA -I derived peptide. Using a range of in vitro models, we assessed the effects of the peptide on HDL formation, cholesterol efflux, insulin secretion, and non -insulin dependent glucose uptake. […] Peptide effects were measured relative to full length ApoA -I and vehicle controls. […]
# Supernatants were recovered and insulin secretion was analysed by ELISA (Mercodia). […]
substance,measurement,setting,value
Ac-AEYHAKATEHLSTLSEKAKPALEDLRQGLLPVLESFKVSFLSALEEYTKKLNTQ [RG54],solubility,[1],> 3000 µg/mL
same,initial rate of phospholipid binding,[2],significantly lower
same,peptide integrity by peptide stability assays (buffer or plasma),[3],confirmed
